From PubChem BioAssay (NCI)
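Exposure lasted 48 hours, with cells grown in 96-well plates and compounds tested at five concentrations. TGI is the concentration that stops growth completely.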

Experiments:
Assay in all cases: NCI-60 cell line screen, 48 h
[1] = tested on: OVCAR-5 ovarian
[2] = tested on: SK-MEL-2 melanoma
[3] = tested on: HT29 colon
[4] = tested on: MALME-3M melanoma
[5] = tested on: MDA-N
[6] = tested on: TK-10 renal
[7] = tested on: SK-MEL-5 melanoma
[8] = tested on: OVCAR-3 ovarian
[9] = tested on: T-47D breast
[10] = tested on: CAKI-1 renal
[11] = tested on: SN12C renal
[12] = tested on: LOX IMVI melanoma
[13] = tested on: BT-549 breast
[14] = tested on: HCT-116 colon
[15] = tested on: MCF7 breast
[16] = tested on: PC-3 prostate

Work on CC(=N/NC(=S)N1CCCCC1)/C(C)=N\NC(=S)N1CCCCC1 yielded a TGI [1] of 3.82 µM, a TGI [2] of 4.65 µM and a TGI [3] of 4.07 µM. For the same molecule, the TGI [4] was 3.61 µM, the TGI [5] was 6.44 µM and the TGI [6] was 3.24 µM. It also gave a TGI [7] of 3.07 µM, a TGI [8] of 3.39 µM and a TGI [9] of 3.27 µM. For the same molecule, the TGI [10] was 3.23 µM, the TGI [11] was 3.2 µM and the TGI [12] was greater than 100 µM. The TGI [13] was 3.38 µM.
With Cn1c2ccccc2n2c(=O)c3cccnc3c(C#N)c12 the TGI [1] was greater than 100 µM, the TGI [14] was greater than 100 µM and the TGI [3] was greater than 100 µM. For the same molecule, the TGI [4] was greater than 100 µM, the TGI [5] was greater than 100 µM and the TGI [6] was greater than 100 µM. The TGI [7] was greater than 100 µM, the TGI [8] was greater than 100 µM and the TGI [9] was greater than 100 µM. The TGI [10] was greater than 100 µM, the TGI [11] was greater than 100 µM and the TGI [12] was greater than 100 µM. For the same molecule, the TGI [13] was greater than 100 µM.
In the case of O=C(O)c1cc(O)c2c(c1)Cc1cccc(O)c1C2=O, the TGI [1] was greater than 100 µM, the TGI [14] was 67.1 µM and the TGI [3] was greater than 100 µM. For the same molecule, the TGI [4] was 38.1 µM, the TGI [6] was greater than 100 µM and the TGI [7] was 40 µM. It also gave a TGI [15] greater than 100 µM, a TGI [8] of 36.9 µM and a TGI [9] greater than 100 µM. It also gave a TGI [11] of 33.9 µM, a TGI [16] greater than 100 µM and a TGI [13] greater than 100 µM.
Work on O=C1OC[C@@H]2Cc3c([nH]c4ccccc34)[C@@H](c3cc(O)c(O)c(O)c3)N12 yielded a TGI [1] of 46.2 µM, a TGI [14] of 61.5 µM and a TGI [2] of 18.9 µM. For the same molecule, the TGI [3] was greater than 100 µM, the TGI [4] was 49.7 µM and the TGI [5] was 82.5 µM. The TGI [6] was greater than 100 µM, the TGI [7] was 29.2 µM and the TGI [15] was 84.1 µM. It also gave a TGI [9] greater than 100 µM, a TGI [10] greater than 100 µM and a TGI [11] of 98.9 µM. The TGI [16] was greater than 100 µM.
O=S(=O)(O)c1ccc2c(N=Nc3ccccc3Cl)c(O)ccc2c1 showed a TGI [1] greater than 100 µM, a TGI [14] greater than 100 µM and a TGI [2] greater than 100 µM. For the same molecule, the TGI [3] was greater than 100 µM, the TGI [4] was greater than 100 µM and the TGI [5] was greater than 100 µM. It also gave a TGI [6] greater than 100 µM, a TGI [7] greater than 100 µM and a TGI [8] greater than 100 µM. The TGI [9] was greater than 100 µM, the TGI [10] was greater than 100 µM and the TGI [11] was greater than 100 µM. For the same molecule, the TGI [12] was greater than 100 µM, the TGI [16] was greater than 100 µM and the TGI [13] was greater than 100 µM.
Molecule CC1(C)N=C(/C=N/O)C(C)(C)N1O has a TGI [1] greater than 100 µM, a TGI [14] greater than 100 µM and a TGI [2] greater than 100 µM. It also gave a TGI [3] greater than 100 µM, a TGI [4] greater than 100 µM and a TGI [5] greater than 100 µM. For the same molecule, the TGI [6] was greater than 100 µM, the TGI [7] was greater than 100 µM and the TGI [15] was greater than 100 µM. It also gave a TGI [8] greater than 100 µM, a TGI [9] greater than 100 µM and a TGI [11] greater than 100 µM. It also gave a TGI [12] greater than 100 µM and a TGI [16] greater than 100 µM.
With O[C@H]1[C@H](O)[C@H](O)CN2CCC[C@@H](O)[C@H]12 the TGI [1] was greater than 100 µM, the TGI [14] was greater than 100 µM and the TGI [2] was greater than 100 µM. The TGI [3] was greater than 100 µM, the TGI [6] was greater than 100 µM and the TGI [7] was greater than 100 µM. For the same molecule, the TGI [15] was greater than 100 µM, the TGI [8] was greater than 100 µM and the TGI [9] was greater than 100 µM. It also gave a TGI [10] greater than 100 µM, a TGI [11] greater than 100 µM and a TGI [12] greater than 100 µM. For the same molecule, the TGI [16] was greater than 100 µM and the TGI [13] was greater than 100 µM.
Work on CC(=O)O[C@H]1C(=O)[C@@]2(C)[C@H]([C@H](OC(=O)c3ccccc3)[C@]3(O)C[C@H](OC(=O)[C@H](O)[C@@H](NC(=O)CC(C)C)c4ccccc4)C(C)=C1C3(C)C)[C@]1(OC(C)=O)CO[C@@H]1C[C@@H]2O yielded a TGI [1] greater than 10 µM, a TGI [14] greater than 10 µM and a TGI [2] greater than 10 µM. For the same molecule, the TGI [3] was 0.0296 µM, the TGI [4] was greater than 10 µM and the TGI [5] was greater than 10 µM. It also gave a TGI [6] greater than 10 µM, a TGI [7] greater than 10 µM and a TGI [15] greater than 10 µM. The TGI [9] was greater than 10 µM, the TGI [10] was greater than 10 µM and the TGI [11] was greater than 10 µM. It also gave a TGI [12] greater than 10 µM and a TGI [13] greater than 10 µM.
Work on O=C1/C(=C/c2cccs2)NC(=S)N1CN1CCOCC1 yielded a TGI [1] greater than 100 µM, a TGI [14] greater than 100 µM and a TGI [2] greater than 100 µM. It also gave a TGI [3] greater than 100 µM, a TGI [5] greater than 100 µM and a TGI [6] greater than 100 µM. The TGI [7] was greater than 100 µM, the TGI [15] was greater than 100 µM and the TGI [8] was greater than 100 µM. For the same molecule, the TGI [11] was greater than 100 µM, the TGI [12] was greater than 100 µM and the TGI [16] was greater than 100 µM.
For COC(=O)[C@H](Cc1ccccc1)NP(=O)(O)OCC1OC(n2cc(C)c(=O)[nH]c2=O)CC1N=[N+]=[N-] (some centres not stated), the TGI [1] was greater than 100 µM, the TGI [14] was greater than 100 µM and the TGI [2] was greater than 100 µM. For the same molecule, the TGI [3] was greater than 100 µM, the TGI [4] was greater than 100 µM and the TGI [5] was greater than 100 µM. The TGI [6] was greater than 100 µM, the TGI [7] was greater than 100 µM and the TGI [15] was greater than 100 µM. For the same molecule, the TGI [8] was greater than 100 µM, the TGI [9] was greater than 100 µM and the TGI [10] was greater than 100 µM. It also gave a TGI [11] greater than 100 µM, a TGI [12] greater than 100 µM and a TGI [16] greater than 100 µM.
COc1cc2c(cc1OC)C(Cc1ccccc1CCCl)=NCC2 gave a TGI [1] greater than 100 µM, a TGI [14] greater than 100 µM and a TGI [2] greater than 100 µM. For the same molecule, the TGI [3] was greater than 100 µM, the TGI [6] was greater than 100 µM and the TGI [7] was 54.3 µM. It also gave a TGI [15] greater than 100 µM, a TGI [8] greater than 100 µM and a TGI [9] greater than 100 µM. It also gave a TGI [10] greater than 100 µM, a TGI [11] greater than 100 µM and a TGI [16] greater than 100 µM. For the same molecule, the TGI [13] was greater than 100 µM.
Molecule CC1C(c2ccc3c(c2)OCO3)c2cc3c(cc2OC1N1CCCCC1)OCO3 (configuration not stated) has a TGI [1] greater than 100 µM, a TGI [14] greater than 100 µM and a TGI [2] greater than 100 µM. For the same molecule, the TGI [3] was greater than 100 µM, the TGI [5] was 48.6 µM and the TGI [6] was greater than 100 µM. The TGI [7] was greater than 100 µM, the TGI [15] was greater than 100 µM and the TGI [8] was greater than 100 µM. The TGI [9] was greater than 100 µM, the TGI [10] was 79.9 µM and the TGI [11] was greater than 100 µM. For the same molecule, the TGI [12] was greater than 100 µM and the TGI [16] was greater than 100 µM.
Work on Fc1cc(-c2ncc(Cl)cc2Cl)c2cccccc1-2 yielded a TGI [1] greater than 100 µM, a TGI [14] greater than 100 µM and a TGI [3] greater than 100 µM. The TGI [4] was greater than 100 µM, the TGI [5] was greater than 100 µM and the TGI [6] was greater than 100 µM. For the same molecule, the TGI [7] was greater than 100 µM, the TGI [15] was greater than 100 µM and the TGI [8] was greater than 100 µM. It also gave a TGI [10] greater than 100 µM, a TGI [12] greater than 100 µM and a TGI [16] greater than 100 µM. The TGI [13] was greater than 100 µM.
Molecule Cc1ccc(O)c(-c2csc(NCN3CCN(CNc4nc(-c5cc(C)ccc5O)cs4)CC3)n2)c1 has a TGI [1] greater than 100 µM, a TGI [14] greater than 100 µM and a TGI [2] greater than 100 µM. It also gave a TGI [3] greater than 100 µM, a TGI [4] greater than 100 µM and a TGI [5] greater than 100 µM. For the same molecule, the TGI [6] was greater than 100 µM, the TGI [7] was greater than 100 µM and the TGI [15] was greater than 100 µM. The TGI [8] was greater than 100 µM, the TGI [10] was greater than 100 µM and the TGI [11] was greater than 100 µM. It also gave a TGI [12] greater than 100 µM, a TGI [16] greater than 100 µM and a TGI [13] greater than 100 µM.
CCOC(=O)C(C)(C)/C=C\C(Cl)=C(Cl)Cl gave a TGI [1] greater than 100 µM, a TGI [14] greater than 100 µM and a TGI [3] greater than 100 µM. The TGI [4] was greater than 100 µM, the TGI [5] was greater than 100 µM and the TGI [6] was greater than 100 µM. The TGI [7] was greater than 100 µM, the TGI [8] was greater than 100 µM and the TGI [10] was greater than 100 µM. For the same molecule, the TGI [11] was greater than 100 µM, the TGI [12] was greater than 100 µM and the TGI [16] was greater than 100 µM.
In the case of O=C1CC(c2ccc[nH]2)=NN1c1ccccc1, the TGI [1] was greater than 100 µM, the TGI [14] was greater than 100 µM and the TGI [2] was greater than 100 µM. It also gave a TGI [3] greater than 100 µM, a TGI [4] greater than 100 µM and a TGI [5] greater than 100 µM. For the same molecule, the TGI [6] was greater than 100 µM, the TGI [7] was greater than 100 µM and the TGI [8] was greater than 100 µM. For the same molecule, the TGI [9] was greater than 100 µM, the TGI [10] was greater than 100 µM and the TGI [11] was greater than 100 µM. The TGI [12] was greater than 100 µM, the TGI [16] was greater than 100 µM and the TGI [13] was greater than 100 µM.
